Experiments:
Experiment in all cases: Test 1A glasshouse assay, post-emergence herbicidal activity
Type in all cases: in vivo
Lolium perenne (LOLPE) = conditions: Lolium perenne, 312 h, application rate 250 g/ha, 13 days after application, visual (100%=total damage; 0%=no damage), read-out: Post-emergence Herbicidal Activity (% Phytotoxicity) LOLPE
Method: (§1) Seeds of a variety of test species were sown in standard soil in pots. After cultivation for one day (pre-emergence) or after 8 days cultivation (post-emergence) under controlled conditions in a glasshouse (at 24/16° C., day/night; 14 hours light; 65% humidity), the plants were sprayed with an aqueous spray solution derived from the formulation of the technical active ingredient in acetone/water (50:50) solution containing 0.5% Tween 20 (polyoxyethelyene sorbitan monolaurate, CAS RN 9005-64-5). The test plants were then grown under controlled conditions in a glasshouse (at 24/16° C., day/night; 14 hours light; 65% humidity) and watered twice daily. 13 days after application of the test herbicide, for pre- and post-emergence, the test was evaluated visually for percentage phytotoxicity to the plant (where 100%=total damage to plant; 0%=no damage to plant).
(§2) Lolium perenne (LOLPE), Alopecurus myosuroides (ALOMY), Echinochloa crus-galli (ECHCG), and Avena fatua (AVEFA); these are all grassy monocotyledonous weeds.

[1] = tested on: Echinochloa crus-galli (ECHCG); conditions: Echinochloa crus-galli, 312 h, application rate 250 g/ha, 13 days after application, visual (100%=total damage; 0%=no damage), read-out: Post-emergence Herbicidal Activity (% Phytotoxicity) ECHCG
Method: as §1, §2

[2] = tested on: Alopecurus myosuroides (ALOMY); conditions: Alopecurus myosuroides, 312 h, application rate 250 g/ha, 13 days after application, visual (100%=total damage; 0%=no damage), read-out: Post-emergence Herbicidal Activity (% Phytotoxicity) ALOMY
Method: as §1, §2

Avena fatua (AVEFA) = conditions: Avena fatua, 312 h, application rate 250 g/ha, 13 days after application, visual (100%=total damage; 0%=no damage), read-out: Post-emergence Herbicidal Activity (% Phytotoxicity) AVEFA
Method: as §1, §2

SMILES	pest or weed control at 250 g/ha (Lolium perenne (LOLPE)) [%]	pest or weed control at 250 g/ha [1] [%]	pest or weed control at 250 g/ha [2] [%]	pest or weed control at 250 g/ha (Avena fatua (AVEFA)) [%]
Cc1cc(-n2ccnn2)cc(C)c1C1C(=O)CC(CCNC(=O)c2ccccn2)C1=O (centres unmarked) [Compound A171]	10	60	0	10
COc1cc(Cl)nc(C(=O)NCCC2CC(=O)C(c3c(C)cc(C)cc3C)C2=O)c1 (centres unmarked) [Compound A65]	80	80	100	70
CCCCS(=O)(=O)OC1=C(c2c(C)cc(-n3cc(Cl)cn3)cc2C)C(=O)C(CCNC(=O)c2ccccn2)C1 (centres unmarked) [Compound P15]	100	100	100	100
Cc1cc(Br)cc(C)c1C1C(=O)CC(CCNC(=O)c2ccccn2)C1=O (centres unmarked) [Compound A125]	100	100	100	100
Cc1cc(C)c(C2C(=O)CC(CCNC(=O)c3sc(Cl)nc3C(F)(F)F)C2=O)c(C)c1 (centres unmarked) [Compound A213]	60	50	10	10
Cc1cc(C)c(C2C(=O)CC(CCNC(=O)c3ccoc3)C2=O)c(C)c1 (centres unmarked) [Compound A16]	60	50	60	50
Cc1cc(C)c(C2C(=O)CC(CCNC(=O)c3nccn3C)C2=O)c(C)c1 (centres unmarked) [Compound A59]	80	30	60	60
Cc1cc(C)c(C2C(=O)CC(CCNC(=O)c3nc(Br)ccc3F)C2=O)c(C)c1 (centres unmarked) [Compound A193]	100	90	90	90
Cc1cc(C)c(C2C(=O)CC(CCNC(=O)c3ccsc3)C2=O)c(C)c1 (centres unmarked) [Compound A4]	80	100	70	60
Cc1cc(C)c(C2C(=O)CC(CCNC(=O)c3sc(C)nc3C)C2=O)c(C)c1 (centres unmarked) [Compound A79]	70	70	80	80
Cc1cc(Br)cc(Br)c1C1C(=O)CC(CCNC(=O)c2ccccn2)C1=O (centres unmarked) [Compound A197]	60	100	90	70
Cc1cccc(C)c1C1C(=O)CC(CCNC(=O)c2ccccn2)C1=O (centres unmarked) [Compound A123]	100	90	100	100
Cc1cc(C)c(C2C(=O)CC(CCNC(=O)c3cc(C)n(C)n3)C2=O)c(C)c1 (centres unmarked) [Compound A75]	90	90	90	90
CCOC(=O)OC1=C(c2c(C)cc(C)cc2C)C(=O)C(CCNC(=O)c2ccc(Br)cn2)C1 (centres unmarked) [Compound P11]	100	100	100	100
COC(=O)OC(C)OC1=C(c2c(C)cc(C)cc2C)C(=O)C(CCNC(=O)c2ccc(Br)cn2)C1 (centres unmarked) [Compound P3]	100	100	90	100
Cc1cc(C)c(C2C(=O)CC(CCNC(=O)c3cnccn3)C2=O)c(C)c1 (centres unmarked) [Compound A55]	90	90	80	60
Cc1ccc(-c2cc(C)c(C3C(=O)CC(CCNC(=O)c4ccccn4)C3=O)c(C)c2)cc1 (centres unmarked) [Compound A204]	100	100	90	90

From US9808003B2, “Herbicidally active 2-(substituted-phenyl)-cyclopentane-1,3-dione compounds and derivatives thereof” (Syngenta Limited, priority 2013, dated 2017)
